# Laboratory results: article PMC7206119, “RIP1 inhibition blocks inflammatory diseases but not tumor growth or metastases” (Cell Death and Differentiation, 2019)
# How the values were obtained:
# Test in all cases: biochemical
# Set-up in all cases: DiscoverX kinase panel, active-site competition binding (KINOMEscan type), percent of control at one concentration
# Settings in all cases: competition binding, percent of control
# ACVR1B = ACVR1B (Homo sapiens, UniProt P36896)
# AXL = AXL (Homo sapiens, UniProt P30530)
# BMPR1B = BMPR1B (Homo sapiens, UniProt O00238)
# BRK = target: T1, BRK (Homo sapiens, UniProt Q13882)
# T1 construct: gene PTK6
# EPHA3 = EPHA3 (Homo sapiens, UniProt P29320)
# EPHB2 = EPHB2 (Homo sapiens, UniProt P29323)
# FAK = target: T2, FAK (Homo sapiens, UniProt Q05397)
# T2 construct: gene PTK2
# FLT3 = FLT3 (Homo sapiens, UniProt P36888)
# LYN = LYN (Homo sapiens, UniProt P07948)
# MLK3 = target: T3, MLK3 (Homo sapiens, UniProt Q16584)
# T3 construct: gene MAP3K11
# MST1R = MST1R (Homo sapiens, UniProt Q04912)
# NEK2 = NEK2 (Homo sapiens, UniProt P51955)
# PIK3C2B = PIK3C2B (Homo sapiens, UniProt O00750)
# PIK3CA = PIK3CA (Homo sapiens, UniProt P42336)
# PIP5K1A = PIP5K1A (Homo sapiens, UniProt Q99755)
# PIP5K2B = target: T4, PIP5K2B (Homo sapiens, UniProt P78356)
# T4 construct: gene PIP4K2B
# PRKCE = PRKCE (Homo sapiens, UniProt Q02156)
# PRKD2 = PRKD2 (Homo sapiens, UniProt Q9BZL6)
# RIPK4 = RIPK4 (Homo sapiens, UniProt P57078)
# [1] = target: T5, RPS6KA5(Kin.Dom.2-C-terminal) (Homo sapiens, UniProt O75582)
# T5 construct: Kin.Dom.2-C-terminal
# SLK = SLK (Homo sapiens, UniProt Q9H2G2)
# p38-delta = target: T6, p38-delta (Homo sapiens, UniProt O15264)
# T6 construct: gene MAPK13
# Sequence of PIK3CA (P42336 whole entry): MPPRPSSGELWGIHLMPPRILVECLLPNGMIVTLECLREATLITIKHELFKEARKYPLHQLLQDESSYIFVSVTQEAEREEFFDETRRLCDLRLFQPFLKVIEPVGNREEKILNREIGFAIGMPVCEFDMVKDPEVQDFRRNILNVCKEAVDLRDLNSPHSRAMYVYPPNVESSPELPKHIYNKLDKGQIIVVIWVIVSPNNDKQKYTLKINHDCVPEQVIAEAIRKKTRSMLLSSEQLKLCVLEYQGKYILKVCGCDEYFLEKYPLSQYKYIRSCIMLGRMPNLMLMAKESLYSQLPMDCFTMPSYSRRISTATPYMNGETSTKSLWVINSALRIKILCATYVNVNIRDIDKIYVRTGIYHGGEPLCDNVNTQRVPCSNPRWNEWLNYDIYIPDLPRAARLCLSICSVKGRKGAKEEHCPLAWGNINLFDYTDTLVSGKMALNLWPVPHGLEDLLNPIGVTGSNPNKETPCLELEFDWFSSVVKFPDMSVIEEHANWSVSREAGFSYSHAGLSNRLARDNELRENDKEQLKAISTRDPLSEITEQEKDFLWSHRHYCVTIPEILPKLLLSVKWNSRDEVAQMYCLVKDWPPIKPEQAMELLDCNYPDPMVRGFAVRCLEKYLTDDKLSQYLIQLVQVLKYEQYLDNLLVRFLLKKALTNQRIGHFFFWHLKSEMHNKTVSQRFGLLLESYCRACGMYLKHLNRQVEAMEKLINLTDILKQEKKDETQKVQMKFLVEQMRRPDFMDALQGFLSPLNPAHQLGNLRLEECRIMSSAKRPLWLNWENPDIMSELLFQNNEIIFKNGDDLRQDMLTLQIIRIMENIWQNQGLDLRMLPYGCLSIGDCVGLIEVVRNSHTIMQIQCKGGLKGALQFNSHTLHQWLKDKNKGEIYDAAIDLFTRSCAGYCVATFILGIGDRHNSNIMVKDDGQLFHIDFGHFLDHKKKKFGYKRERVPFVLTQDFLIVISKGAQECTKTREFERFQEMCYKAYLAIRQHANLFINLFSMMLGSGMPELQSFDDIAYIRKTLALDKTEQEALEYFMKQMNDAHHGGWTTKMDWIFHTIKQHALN
# Sequence of PIK3C2B (O00750 whole entry): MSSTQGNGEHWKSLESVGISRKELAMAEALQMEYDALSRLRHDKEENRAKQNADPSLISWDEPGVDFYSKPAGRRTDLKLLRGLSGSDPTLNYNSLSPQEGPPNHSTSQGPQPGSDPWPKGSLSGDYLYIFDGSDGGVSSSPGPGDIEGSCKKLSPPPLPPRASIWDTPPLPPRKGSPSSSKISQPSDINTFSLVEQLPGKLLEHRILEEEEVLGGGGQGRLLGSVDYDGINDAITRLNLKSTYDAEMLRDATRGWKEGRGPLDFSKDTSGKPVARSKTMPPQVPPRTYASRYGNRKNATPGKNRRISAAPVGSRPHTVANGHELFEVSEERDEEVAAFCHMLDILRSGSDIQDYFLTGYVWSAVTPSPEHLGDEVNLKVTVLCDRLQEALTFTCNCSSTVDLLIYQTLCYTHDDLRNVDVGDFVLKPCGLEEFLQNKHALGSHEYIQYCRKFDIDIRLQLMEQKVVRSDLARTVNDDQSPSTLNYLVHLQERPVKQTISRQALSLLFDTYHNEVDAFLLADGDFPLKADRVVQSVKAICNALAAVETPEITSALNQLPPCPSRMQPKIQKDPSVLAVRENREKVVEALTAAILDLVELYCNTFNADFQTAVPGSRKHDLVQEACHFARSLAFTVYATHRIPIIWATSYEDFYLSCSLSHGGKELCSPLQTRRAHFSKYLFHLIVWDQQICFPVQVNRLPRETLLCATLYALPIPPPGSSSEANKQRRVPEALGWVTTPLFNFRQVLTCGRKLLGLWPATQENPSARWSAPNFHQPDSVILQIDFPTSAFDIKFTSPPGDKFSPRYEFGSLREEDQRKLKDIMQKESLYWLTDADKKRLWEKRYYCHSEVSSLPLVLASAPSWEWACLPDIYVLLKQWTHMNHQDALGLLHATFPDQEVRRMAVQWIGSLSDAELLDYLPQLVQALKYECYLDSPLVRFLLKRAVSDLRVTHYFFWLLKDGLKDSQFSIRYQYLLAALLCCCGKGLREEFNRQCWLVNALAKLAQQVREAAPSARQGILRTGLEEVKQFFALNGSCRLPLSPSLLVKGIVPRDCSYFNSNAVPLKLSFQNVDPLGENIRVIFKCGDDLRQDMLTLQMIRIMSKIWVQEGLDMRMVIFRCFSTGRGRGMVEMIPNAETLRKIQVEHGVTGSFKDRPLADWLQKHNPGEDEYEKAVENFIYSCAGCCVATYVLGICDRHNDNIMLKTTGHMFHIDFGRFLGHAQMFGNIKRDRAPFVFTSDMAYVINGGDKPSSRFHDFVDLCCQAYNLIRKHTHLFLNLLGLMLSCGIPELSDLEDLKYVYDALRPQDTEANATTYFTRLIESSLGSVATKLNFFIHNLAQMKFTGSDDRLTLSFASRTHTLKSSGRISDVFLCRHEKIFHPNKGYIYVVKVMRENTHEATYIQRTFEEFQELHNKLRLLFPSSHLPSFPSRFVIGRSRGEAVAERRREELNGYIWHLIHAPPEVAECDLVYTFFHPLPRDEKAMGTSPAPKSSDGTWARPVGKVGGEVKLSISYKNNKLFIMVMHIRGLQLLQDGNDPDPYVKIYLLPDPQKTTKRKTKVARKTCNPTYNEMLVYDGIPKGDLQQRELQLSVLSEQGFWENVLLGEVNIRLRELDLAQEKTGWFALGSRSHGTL
# Sequence of FLT3 (P36888 whole entry): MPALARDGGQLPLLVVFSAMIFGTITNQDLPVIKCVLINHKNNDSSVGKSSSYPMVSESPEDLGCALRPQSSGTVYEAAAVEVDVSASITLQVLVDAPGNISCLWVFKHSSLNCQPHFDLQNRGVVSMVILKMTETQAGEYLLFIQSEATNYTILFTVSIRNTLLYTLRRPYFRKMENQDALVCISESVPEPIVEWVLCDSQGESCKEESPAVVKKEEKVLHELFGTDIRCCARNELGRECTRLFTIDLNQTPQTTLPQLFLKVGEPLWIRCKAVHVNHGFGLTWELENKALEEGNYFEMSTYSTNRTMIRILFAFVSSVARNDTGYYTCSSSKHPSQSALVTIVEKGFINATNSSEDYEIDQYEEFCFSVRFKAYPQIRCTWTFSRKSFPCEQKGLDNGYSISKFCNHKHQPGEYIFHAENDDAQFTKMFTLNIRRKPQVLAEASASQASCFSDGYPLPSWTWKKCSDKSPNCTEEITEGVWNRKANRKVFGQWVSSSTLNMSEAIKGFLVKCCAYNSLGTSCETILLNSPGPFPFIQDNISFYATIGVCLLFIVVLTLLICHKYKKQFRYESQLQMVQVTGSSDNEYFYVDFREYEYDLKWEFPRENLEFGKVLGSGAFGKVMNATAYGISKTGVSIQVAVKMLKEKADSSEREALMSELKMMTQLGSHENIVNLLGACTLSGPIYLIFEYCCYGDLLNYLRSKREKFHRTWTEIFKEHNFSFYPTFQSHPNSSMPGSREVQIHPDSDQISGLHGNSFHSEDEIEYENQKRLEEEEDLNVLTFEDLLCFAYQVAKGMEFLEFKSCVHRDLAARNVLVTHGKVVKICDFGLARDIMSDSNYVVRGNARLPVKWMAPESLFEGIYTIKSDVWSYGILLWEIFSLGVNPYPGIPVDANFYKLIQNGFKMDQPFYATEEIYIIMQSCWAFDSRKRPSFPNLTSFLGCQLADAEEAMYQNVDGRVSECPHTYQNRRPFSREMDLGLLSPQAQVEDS
# T5 sequence (O75582 whole entry): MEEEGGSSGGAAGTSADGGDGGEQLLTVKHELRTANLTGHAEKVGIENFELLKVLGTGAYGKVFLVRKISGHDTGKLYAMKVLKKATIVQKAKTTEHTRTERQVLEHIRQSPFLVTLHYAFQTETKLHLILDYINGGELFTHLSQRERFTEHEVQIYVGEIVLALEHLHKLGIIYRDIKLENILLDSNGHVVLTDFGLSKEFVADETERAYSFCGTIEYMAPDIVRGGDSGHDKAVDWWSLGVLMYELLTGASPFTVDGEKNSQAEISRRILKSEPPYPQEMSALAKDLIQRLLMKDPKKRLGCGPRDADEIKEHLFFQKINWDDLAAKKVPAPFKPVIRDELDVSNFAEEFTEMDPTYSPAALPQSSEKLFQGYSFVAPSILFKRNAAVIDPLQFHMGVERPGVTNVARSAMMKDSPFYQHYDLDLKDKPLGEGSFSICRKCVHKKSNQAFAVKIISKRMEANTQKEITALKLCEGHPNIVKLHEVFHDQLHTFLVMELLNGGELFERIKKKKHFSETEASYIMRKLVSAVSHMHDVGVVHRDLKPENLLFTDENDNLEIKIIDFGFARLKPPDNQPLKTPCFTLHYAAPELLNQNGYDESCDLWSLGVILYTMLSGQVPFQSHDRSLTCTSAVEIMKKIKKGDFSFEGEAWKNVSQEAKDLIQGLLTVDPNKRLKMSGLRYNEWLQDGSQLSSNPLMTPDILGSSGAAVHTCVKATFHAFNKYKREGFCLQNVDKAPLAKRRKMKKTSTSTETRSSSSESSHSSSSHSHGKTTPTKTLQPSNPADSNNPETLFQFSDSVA
# Sequence of BMPR1B (O00238 whole entry): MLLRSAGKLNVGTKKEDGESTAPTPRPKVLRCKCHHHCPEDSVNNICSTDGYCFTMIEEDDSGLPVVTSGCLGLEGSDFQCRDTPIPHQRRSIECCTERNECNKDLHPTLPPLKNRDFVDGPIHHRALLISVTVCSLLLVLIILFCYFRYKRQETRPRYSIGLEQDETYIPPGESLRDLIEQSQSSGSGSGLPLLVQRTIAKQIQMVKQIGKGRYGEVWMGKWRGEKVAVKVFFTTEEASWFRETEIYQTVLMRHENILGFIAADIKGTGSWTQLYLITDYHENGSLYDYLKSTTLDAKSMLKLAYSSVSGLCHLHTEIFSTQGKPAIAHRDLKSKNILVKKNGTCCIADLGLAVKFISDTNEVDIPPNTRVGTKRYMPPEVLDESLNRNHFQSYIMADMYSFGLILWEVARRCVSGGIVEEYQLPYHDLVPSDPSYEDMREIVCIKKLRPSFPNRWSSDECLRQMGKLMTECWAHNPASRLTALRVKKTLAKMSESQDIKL
structure (smiles),measurement,setting,value
"COc1cc2c(cn1)N(C)C(=O)[C@@H](NC(=O)c1nc3n(n1)[C@H](c1ccccc1)CC3)CC2 [GNE684, (S)-N-((S)-7-methoxy-1-methyl-2-oxo-2,3,4,5-tetrahydro-1H-pyrido[3,4-b]azepin-3-yl)-5-phenyl-6,7-dihydro-5H-pyrrolo[1,2-b][1,2,4]triazole-2-carboxamide]",remaining binding at 10 µM,ACVR1B,93%
same,remaining binding at 10 µM,AXL,96%
same,remaining binding at 10 µM,BMPR1B,100%
same,remaining binding at 10 µM,BRK,100%
same,remaining binding at 10 µM,EPHA3,91%
same,remaining binding at 10 µM,EPHB2,82%
same,remaining binding at 10 µM,FAK,85%
same,remaining binding at 10 µM,FLT3,87%
same,remaining binding at 10 µM,LYN,94%
same,remaining binding at 10 µM,MLK3,100%
same,remaining binding at 10 µM,MST1R,94%
same,remaining binding at 10 µM,NEK2,92%
same,remaining binding at 10 µM,PIK3C2B,93%
same,remaining binding at 10 µM,PIK3CA,100%
same,remaining binding at 10 µM,PIP5K1A,99%
same,remaining binding at 10 µM,PIP5K2B,92%
same,remaining binding at 10 µM,PRKCE,88%
same,remaining binding at 10 µM,PRKD2,100%
same,remaining binding at 10 µM,RIPK4,100%
same,remaining binding at 10 µM,[1],100%
same,remaining binding at 10 µM,SLK,100%
same,remaining binding at 10 µM,p38-delta,92%
